Series [1] is described as follows: Pharmacokinetics of five main constituents in immunosuppressive mice plasma after oral administration of RA (HPLC-MS/MS). It counts as in vivo, Balb/c mice. The conditions noted are these: male, mouse. As to the method:
The maximum plasma concentration (Cmax) and the time of maximum plasma concentration (tmax) were obtained from the observed data (Table 3). The plasma concentration-time profiles for calycosin-7-O-glucoside, ononin, calycosin, formononetin and astragaloside IV are shown in Figure 4.
To quantify calycosin-7-O-glucoside, ononin, calycosin, formononetin and astragaloside IV in mice, a 10-μL IS solution was added into 50 μL of plasma and mixed for 30 s. Then, 1 mL ethyl acetate was added to the tube and vortexed for 3 min. […] Ten microliters of the supernatant were injected into the HPLC-MS/MS system.
The quantification was performed by an LC-MS/MS system, which consisted of an Agilent 1200 HPLC series system and an Agilent 6410 triple quadrupole mass spectrometer (Agilent Technol., Santa Clara, CA, USA) equipped with an electrospray ionization source. Samples were separated by a rapid resolution HT C18 column (2.1 mm × 50 mm, 1.8 μm, Agilent Technol.) at 30 °C. The mobile phase consisted of 0.1 formic acid both in methanol (A) and water (B) using a gradient elution program of 25%–50% A (0–5 min) and 50%–90% (5–10 min). The flow rate was 0.2 mL/min, and the injection volume was 10 μL. Detection was performed in the positive ion mode using multiple reaction monitoring (MRM) of the m/z 447.1/285.0 for calycosin-7-O-glucoside, m/z 431.1/269.0 for ononin, m/z 285.0/137.0 for calycosin, m/z 269.0/213.0 for formononetin, m/z 807.4/627.3 for astragaloside IV and m/z 271.1/151.0 for naringenin.

Series [2] is described as follows: Profiling of absorbed constituents and metabolites in mice plasma after oral administration of RA (UFLC-DAD-Q-TOF-MS/MS). The conditions noted are these: oral RA extract 6 g/kg BW; cyclophosphamide-induced immunosuppressed Balb/c mice; plasma sampled 0.25-36 h; '-' = not detected.
Experimental: The peaks that appeared at the same position in the total ion chromatograms of both the dosed mice bio-samples and the RA extract, but not in the chromatograms of the controlled mice bio-samples, were regarded as absorbed constituents [22].
Following randomization into study groups, mice (6/group/male) received intraperitoneal injection once daily of cyclophosphamide (i.p. 80 mg/kg BW) for 6 days. Additionally, the control group was injected intraperitoneally with sterile physiological saline. […] Plasma was harvested by centrifugation at 3000× g for 10 min and then kept frozen at −70 °C until analysis.
After being vortexed for 1 min, the sample was centrifuged at 13,000× g at 4 °C for 30 min. The supernate was transferred into a fresh tube and evaporated with nitrogen. Then, the residue was dissolved in a 60-μL mobile phase with vortex mixing for 3 min and centrifuged at 13,000× g for 30 min. Finally, 10 μL of the supernatant were injected into the UFLC/DAD/Q-TOF-MS/MS system.
The multiple constituents in RA and the absorbed compounds in mice plasma were identified by the ultra-fast liquid chromatography/diode-array detector/quadrupole time-of-flight tandem mass spectrometry (UFLC/DAD/Q-TOF-MS/MS) method.

Structures are written as SMILES. Where two headings read alike, the source gives them in different places.

One may read the Cmax as the peak of the concentration-time curve. A word on the Tmax: it is the time at which the peak concentration occurs. For the molecule `COc1ccc(-c2coc3cc(O[C@@H]4O[C@H](CO)[C@@H](O)[C@H](O)[C@H]4O)ccc3c2=O)cc1O` (single isomer, unassigned) [Peak 29, Calycosin-7-O-glucoside], the AUC(0-t) in series [1] (oral RA extract 6 g/kg BW, immunosuppressive Balb/c mice plasma, 0-36 h, read-out: AUC(0–t)) was 108 ± 37.1 ng·h/mL. Moreover, the AUC(0-inf) in series [1] (oral RA extract 6 g/kg BW, immunosuppressive Balb/c mice plasma, read-out: AUC(0–∞)) came to 127 ± 40.3 ng·h/mL. Moreover, the peak concentration (Cmax) in series [1] (oral RA extract 6 g/kg BW, immunosuppressive Balb/c mice plasma, read-out: Cmax) was found to be 33.4 ng/mL. Further, the half-life in series [1] (oral RA extract 6 g/kg BW, immunosuppressive Balb/c mice plasma, read-out: t1/2z (converted)) was 2.61 ± 0.67 h. The Tmax in series [1] (oral RA extract 6 g/kg BW, immunosuppressive Balb/c mice plasma, read-out: tmax) amounted to 1.5 h. The “Source: Dosed Plasma (time points at which the compound was detected)” value (“Source: Dosed Plasma” below) in series [2] fell in the range of 0.25 to 24 h.

In the case of `CC(C)(O)[C@@H]1CC[C@](C)(C2[C@@H](O)C[C@@]3(C)[C@@H]4C[C@H](O[C@@H]5O[C@H](CO)[C@@H](O)[C@H](O)[C@H]5O)C5C(C)(C)[C@@H](O[C@@H]6OC[C@@H](O)[C@H](O)[C@H]6O)CC[C@@]56C[C@@]46CC[C@]23C)O1` (single isomer, unassigned) [Peak 45, Astragaloside IV], the AUC(0-t) was 695 ± 179 ng·h/mL in series [1] (in vivo, 6 g/kg BW, oral RA, immunosuppressive Balb/c mice plasma, read-out: AUC0–t) and 695 ± 179 ng·h/mL in series [1] (in vivo, oral RA extract 6 g/kg BW, immunosuppressive Balb/c mice plasma, 0-36 h, read-out: AUC(0–t)). Moreover, the Cmax in series [1] (in vivo, 6 g/kg BW, oral RA, immunosuppressive Balb/c mice plasma, read-out: Cmax) came to 129 ng/mL; in series [1] (in vivo, oral RA extract 6 g/kg BW, immunosuppressive Balb/c mice plasma, read-out: Cmax), 129 ng/mL. Also, the AUC(0-inf) in series [1] (in vivo, oral RA extract 6 g/kg BW, immunosuppressive Balb/c mice plasma, read-out: AUC(0–∞)) stood at 722 ± 197 ng·h/mL. Moreover, the half-life in series [1] (in vivo, oral RA extract 6 g/kg BW, immunosuppressive Balb/c mice plasma, read-out: t1/2z (converted)) was 3.48 ± 1.15 h. In addition, the Tmax in series [1] (in vivo, oral RA extract 6 g/kg BW, immunosuppressive Balb/c mice plasma, read-out: tmax) is 1.5 h. In addition, in series [2], the “Source: Dosed Plasma” value was 0.25 to 24 h.

Turning to `COc1ccc(-c2coc3cc(O)ccc3c2=O)cc1` [Peak 39, Formononetin], the “double-peak phenomenon, time of second peak” value in series [1] (Balb/c, in vivo, po) amounted to 6 h. Also, in series [1] (Balb/c, in vivo, po, 6 g/kg), the AUC(0-inf) came to 256 ± 45.7 ng·h/mL, the AUC(0-t) was 233 ± 47.8 ng·h/mL, the highest level (Cmax) was 47.9 ng/mL and the Tmax was determined as 2 h. This molecule also gave a half-life in series [1] (Balb/c, in vivo, po, 6 g/kg) of 3.99 ± 1.03 h. Also, the “Source: Dosed Plasma” value in series [2] was in the range of 0.25 to 24 h.

These data come from publication PMC4394464, “Identification and Pharmacokinetics of Multiple Potential Bioactive Constituents after Oral Administration of Radix Astragali on Cyclophosphamide-Induced Immunosuppression in Balb/c Mice” (International Journal of Molecular Sciences, 2015).
